The results in this text go back to patent US20230295260A1, “GLP RECEPTOR AGONISTS” (HEPTARES THERAPEUTICS LIMITED, priority 2020, published 2023).

Non-standard residues stand in square brackets, D forms with d. Residues, ends and D or L forms follow the SMILES beside them. Nle = CCCC[C@H](N)C(=O)O Some results are limits rather than exact numbers.

One assay addresses T1, human GLP1 receptor (Homo sapiens, UniProt P43220).
T1 construct: expressed in transfected cells; host or cells: HEK cells, BacMam virus transduction
Briefly: cAMP accumulation assay (HTRF), functional agonism of human GLP1 receptor in HEK cells. In kind it is cell-based. As to conditions: HEK cells, human GLP1 receptor BacMam, 45 min 37° C.; for Emax: HEK293, read-out: Human GLP-1R agonist cAMP Emax; for EC50: read-out: Human GLP-1R agonist cAMP pEC50 (converted).

The target in a further assay is T2, human GLP2 receptor (Homo sapiens, UniProt O95838).
T2 sequence (O95838 1-553): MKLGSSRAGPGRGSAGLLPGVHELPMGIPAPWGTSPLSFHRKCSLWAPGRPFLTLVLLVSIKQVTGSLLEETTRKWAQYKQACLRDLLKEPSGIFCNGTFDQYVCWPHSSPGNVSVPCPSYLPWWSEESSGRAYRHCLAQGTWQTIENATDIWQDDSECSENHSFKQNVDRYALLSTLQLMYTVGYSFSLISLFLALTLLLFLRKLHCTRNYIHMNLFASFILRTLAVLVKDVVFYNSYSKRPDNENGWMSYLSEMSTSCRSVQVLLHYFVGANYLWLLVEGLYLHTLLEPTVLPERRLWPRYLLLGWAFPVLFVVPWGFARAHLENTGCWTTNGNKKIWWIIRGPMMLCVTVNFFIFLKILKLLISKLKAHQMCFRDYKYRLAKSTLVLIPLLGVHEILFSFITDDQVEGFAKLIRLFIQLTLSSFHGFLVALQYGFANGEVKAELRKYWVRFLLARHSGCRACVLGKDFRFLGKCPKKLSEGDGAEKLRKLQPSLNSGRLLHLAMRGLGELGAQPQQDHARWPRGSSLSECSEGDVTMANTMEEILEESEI
The experiment in a line: cAMP accumulation assay (HTRF), functional agonism of human GLP2 receptor in HEK cells.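 On all read-outs here: HEK cells transduced via BacMam to express human GLP2 receptor, agonist-stimulated cAMP measured by HTRF after 45 min at 37 °C in HBSS with 0.5 mM IBMX.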 Conditions: for Emax: HEK293, read-out: Human GLP-2R agonist cAMP Emax. In general terms: Cyclic AMP is a second messenger, typically raised through Gs and lowered through Gi signalling.

For another assay, the target named is T3, mouse GLP1 receptor (Mus musculus, UniProt O35659).
T3 construct: expressed in transfected cells; host or cells: HEK cells, transient transfection with GeneJuice
T3 sequence (O35659 22-463): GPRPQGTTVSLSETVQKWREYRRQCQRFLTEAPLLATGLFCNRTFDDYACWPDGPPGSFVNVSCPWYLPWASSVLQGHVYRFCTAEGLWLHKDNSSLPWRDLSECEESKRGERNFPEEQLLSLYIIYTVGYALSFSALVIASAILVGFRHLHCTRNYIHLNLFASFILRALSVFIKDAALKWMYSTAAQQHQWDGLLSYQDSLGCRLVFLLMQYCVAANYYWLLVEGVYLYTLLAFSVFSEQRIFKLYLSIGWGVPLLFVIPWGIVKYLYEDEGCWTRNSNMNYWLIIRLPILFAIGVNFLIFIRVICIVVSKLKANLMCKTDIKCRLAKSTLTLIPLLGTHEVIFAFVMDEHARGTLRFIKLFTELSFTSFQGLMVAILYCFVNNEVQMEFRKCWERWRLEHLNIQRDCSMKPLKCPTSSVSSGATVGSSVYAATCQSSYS
Briefly: cAMP accumulation assay (HTRF), functional agonism of mouse GLP1 receptor in HEK cells. It counts as cell-based. As to conditions: HEK cells transiently transfected, 45 min 37° C.; for Emax: HEK293, read-out: Mouse GLP-1 R agonist cAMP Emax; for EC50: read-out: Mouse GLP-1 R agonist cAMP pEC50 (converted).

The next assay has as its target T4, mouse GLP2 receptor (Mus musculus, UniProt Q5IXF8).
T4 construct: expressed in transfected cells; host or cells: HEK cells, transient transfection with GeneJuice
T4 sequence (Q5IXF8 1-512): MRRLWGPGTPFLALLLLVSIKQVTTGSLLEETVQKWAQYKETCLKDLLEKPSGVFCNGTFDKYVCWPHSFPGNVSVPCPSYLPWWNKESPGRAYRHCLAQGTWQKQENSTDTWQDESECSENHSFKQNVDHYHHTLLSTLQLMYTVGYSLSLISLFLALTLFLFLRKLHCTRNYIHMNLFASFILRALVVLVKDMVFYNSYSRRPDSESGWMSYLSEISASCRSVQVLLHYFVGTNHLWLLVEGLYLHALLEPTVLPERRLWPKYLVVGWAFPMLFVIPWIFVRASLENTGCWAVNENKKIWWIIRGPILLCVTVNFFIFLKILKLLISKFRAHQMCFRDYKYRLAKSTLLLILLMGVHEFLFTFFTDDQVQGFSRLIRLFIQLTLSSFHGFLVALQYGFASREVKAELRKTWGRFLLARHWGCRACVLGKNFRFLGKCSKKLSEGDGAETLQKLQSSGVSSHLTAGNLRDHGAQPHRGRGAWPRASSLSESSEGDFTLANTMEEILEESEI
Briefly: cAMP accumulation assay (HTRF), functional agonism of mouse GLP2 receptor in HEK cells. It counts as cell-based. As to conditions: HEK cells transiently transfected, 45 min 37° C.; for Emax: HEK293, read-out: Mouse GLP-2R agonist cAMP Emax; for EC50: read-out: Mouse GLP-2R agonist cAMP pEC50 (converted).

In assay [1] the test system is C57BL/6J male mice. The experiment in a line: Dose response effect on intestinal mass in normal mice, 7 day dosing (FIG. 2). Conditions: daily sc. In kind it is in vivo, mouse. As for the experimental part: The enhancement of the small bowel wet weight (over vehicle) is plotted as a function of the peptide dose. […] N=6 animals I grp.
C57BL/6J male mice (Charles River, Italy, ~8 weeks) are randomly allocated to the treatment group based on the baseline body weights. Animals are given free access to food and water during the whole duration of the study. Mice are dosed daily with the vehicle or test peptides via subcutaneous injection. On day 7, animals are sacrificed and segments from the upper small intestine (15 cm segment from the pylorus) are collected and weighed (see Example B).

The subject of assay [2] is C57BL/6J male mice. Briefly: Effect on intestinal wet weight in normal mice (FIG. 1). It counts as in vivo, mouse. Conditions: once daily sc 270 nmol/kg (liraglutide iv 200 ug/kg), sacrificed on day 3, vs. vehicle. As for the experimental part:
Mice were sacrificed on day 3 and the wet weight of the small intestine was quantified. GLP-2 active peptides show significant enhancement of the small intestinal weight. […] N=6 animals / grp. *p < 0.05 vs. vehicle
C57BL/6J male mice (Charles River, Italy, ~8 weeks) are randomly allocated to the treatment group based on the baseline body weights. Animals are given free access to food and water during the whole duration of the study. Mice are dosed daily with the test compounds via subcutaneous injection. […] The abdominal cavity will be opened and the intestinal tissue is excised carefully to avoid perforation. Tissue from the upper small intestine (15 cm segment from the pylorus) is collected. The bowel is cleaned by flushing through with ice cold PBS to remove any feces.

T1 sequence (P43220 24-463): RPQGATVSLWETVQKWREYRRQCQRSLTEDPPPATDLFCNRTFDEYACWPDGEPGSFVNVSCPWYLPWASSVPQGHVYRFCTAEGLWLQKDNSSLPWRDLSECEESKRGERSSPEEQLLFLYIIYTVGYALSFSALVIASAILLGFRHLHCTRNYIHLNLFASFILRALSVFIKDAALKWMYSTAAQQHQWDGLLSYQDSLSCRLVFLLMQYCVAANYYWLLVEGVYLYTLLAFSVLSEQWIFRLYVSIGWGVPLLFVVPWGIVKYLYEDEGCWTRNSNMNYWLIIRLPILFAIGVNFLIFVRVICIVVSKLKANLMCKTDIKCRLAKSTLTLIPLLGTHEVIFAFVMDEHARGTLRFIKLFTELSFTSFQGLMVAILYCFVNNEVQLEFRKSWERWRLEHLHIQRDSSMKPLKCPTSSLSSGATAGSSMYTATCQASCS
Experimental for human GLP2 receptor: The functional activity of the peptides were assessed using a HTRF cAMP assay. pEC50 values are quoted.
cAMP production upon agonist stimulation of human GLP2 or GLP1 receptor was assessed utilizing HiRange cAMP kit (Cisbio). In brief, HEK cells were infected with either human GLP2 or GLP1 receptor BacMam virus for 24 hours and frozen for later use in the assay. […] Cells were prepared in the assay buffer (HBSS (Lonza) supplemented with 0.5 mM IBMX (Tocris)). After 45 min incubation at 37° C., the reaction was stopped by addition of the HTRF detection reagents in the lysis buffer provided in the kit.

Usually Emax stands for the greatest response seen or fitted, relative to the assay's reference. For the compound `CCCC[C@H](NC(=O)[C@H](CCC(=O)O)NC(=O)[C@H](CC(=O)O)NC(=O)[C@H](CO)NC(=O)[C@H](Cc1ccccc1)NC(=O)[C@H](CO)NC(=O)CNC(=O)[C@H](CC(=O)O)NC(=O)CNC(=O)[C@@H](N)Cc1cnc[nH]1)C(=O)N[C@H](Cc1ccccc1)C(=O)N[C@H](C(=O)N[C@H](C(=O)N[C@@H](CC(C)C)C(=O)N[C@@H](CC(=O)O)C(=O)N[C@@H](CC(C)C)C(=O)N[C@@H](CC(C)C)C(=O)N[C@@H](C)C(=O)N[C@@H](C)C(=O)N[C@@H](CCCNC(=N)N)C(=O)N[C@@H](CC(=O)O)C(=O)N[C@@H](Cc1ccccc1)C(=O)N[C@H](C(=O)N[C@@H](CC(N)=O)C(=O)N[C@@H](Cc1c[nH]c2ccccc12)C(=O)N[C@@H](CC(C)C)C(=O)N[C@H](C(=O)N[C@@H](CCC(N)=O)C(=O)N[C@H](C(=O)N[C@@H](CCCCN)C(=O)N[C@H](C(=O)N[C@H](C(=O)N[C@@H](CC(=O)O)C(N)=O)[C@@H](C)O)[C@@H](C)CC)[C@@H](C)O)[C@@H](C)CC)[C@@H](C)CC)[C@@H](C)CC)[C@@H](C)O` [FE-203799, reference compound] (H-HGDGSFSDE[Nle][dF]TILDLLAARDFINWLIQTKITD-NH2), the Emax was found to be 61.4% on human GLP1 receptor, 101% on human GLP2 receptor, 53.4% on mouse GLP1 receptor and 98.1% on mouse GLP2 receptor. The EC50 on human GLP1 receptor was 158 nM; at human GLP2 receptor, 0.0158 nM; at mouse GLP1 receptor, above 50.1 nM; at mouse GLP2 receptor it was 0.0316 nM.
With `CC[C@H](C)[C@H](NC(=O)[C@H](Cc1ccccc1)NC(=O)[C@H](CC(=O)O)NC(=O)[C@H](CCCNC(=N)N)NC(=O)[C@H](C)NC(=O)[C@H](C)NC(=O)[C@H](CC(C)C)NC(=O)[C@H](CC(N)=O)NC(=O)[C@H](CC(=O)O)NC(=O)[C@H](CC(C)C)NC(=O)[C@@H](NC(=O)[C@@H](NC(=O)[C@H](CC(N)=O)NC(=O)[C@H](CCSC)NC(=O)[C@H](CCC(=O)O)NC(=O)[C@H](CC(=O)O)NC(=O)[C@H](CO)NC(=O)[C@H](Cc1ccccc1)NC(=O)[C@H](CO)NC(=O)CNC(=O)[C@H](CC(=O)O)NC(=O)CNC(=O)[C@@H](N)Cc1c[nH]cn1)[C@@H](C)O)[C@@H](C)CC)C(=O)N[C@@H](CC(N)=O)C(=O)N[C@@H](Cc1c[nH]c2ccccc12)C(=O)N[C@@H](CC(C)C)C(=O)N[C@H](C(=O)N[C@@H](CCC(N)=O)C(=O)N[C@H](C(=O)N[C@@H](CCCCN)C(=O)N[C@H](C(=O)N[C@H](C(=O)N[C@@H](CC(=O)O)C(=O)O)[C@@H](C)O)[C@@H](C)CC)[C@@H](C)O)[C@@H](C)CC` [Teduglutide, reference compound], the Emax on human GLP1 receptor came out at 60.3%; on human GLP2 receptor, 101%; on mouse GLP1 receptor, 1%; on mouse GLP2 receptor it was 100%. The EC50 on human GLP1 receptor is 316 nM; on mouse GLP1 receptor, above 794 nM; on mouse GLP2 receptor, 0.00794 nM. The “enhancement of small bowel wet weight (over vehicle) as a function of dose” value in the assay with C57BL/6J male mice [1] is “dose dependent enhancements in the wet weight of the small intestine”. Also, the “wet weight of the small intestine” value in the assay on C57BL/6J male mice [2] was “Significant enhancement of intestinal wet weight”.
